Where a name gives a salt, the structure may show the parent alone. Read-outs that look alike come from different tables or passages of the source.
Legend:
[1] = test system: tetrabenazine-induced sedation and depression in mice; assay: Antagonism of tetrabenazine-induced depression in mice, orally; assay type: in vivo, female white mice (Carworth CF1 S); conditions: oral, 1 hr post drug, 30 minutes after tetrabenazine 32 mg/kg intraperitoneally, female mice; for ED50: Mus musculus, read-out: ED50 for prevention of ptosis
Method: Relief from ptosis was recorded when exactly two seconds after placing the mouse facing the observer, lid closure was less than 50% in both eyes.

[2] = test system: tetrabenazine-induced sedation and depression in mice; assay: as above; assay type: in vivo, female white mice (Carworth CF1 S); conditions: oral, 1 hr post drug, 30 minutes after tetrabenazine 32 mg/kg intraperitoneally, female mice; for ED50: Mus musculus, read-out: ED50 for prevention of exploratory loss
[3] = background statement, no test described; cited from earlier work

Compound	ED50 [1]	ED50 [2]	side effects [3]	ED50 for prevention of ptosis [1]	ED50 for prevention of exploratory loss [2]
CC(O)CCN1CCC2C3c4ccccc4C(c4ccccc43)C2C1 (centres unmarked)	4.9 mg/kg	5.6 mg/kg	–	–	–
c1ccc(OCCN2CCC3C4c5ccccc5C(c5ccccc54)C3C2)cc1 (centres unmarked)	10.8 mg/kg	27 mg/kg	–	–	–
CCOC(=O)CCN1CCC2C3c4ccccc4C(c4ccccc43)C2C1 (racemic) [(±)1,2,3,4,4a,5,10,10a-octahydro-5,10-o-benzenobenz[g]isoquinoline-2-propionic acid ethyl ester]	8.1 mg/kg	20 mg/kg	–	–	–
CCCCN1CCC2C3c4ccccc4C(c4ccccc43)C2C1 (racemic) [(±)2-(1-butyl)-1,2,3,4,4a,5,10,10a-Octahydro-5,10-o-benzenobenz[g]isoquinoline Maleate]	11.2 mg/kg	19 mg/kg	–	–	–
c1ccc(CCN2CCC3C4c5ccccc5C(c5ccccc54)C3C2)cc1 (racemic) [R=CH2 CH2 C6 H5, R1=H, R2=H, R3=H, R4=H, (±)1,2,3,4,4a,5,10,10a-octahydro-2-phenethyl-5,10-o-benzenobenz[g]isoquinoline, hydrochloride hemihydrate]	11.8 mg/kg	13.6 mg/kg	–	–	–
CC(=O)CCN1CCC2C3c4ccccc4C(c4ccccc43)C2C1 (racemic) [R=CH2 CH2 COCH3, R1=H, R2=H, R3=H, R4=H, (±)4-(1,2,3,4,4a,5,10,10a-Octahydro-5,10-o-benzenobenz[g]isoquinoline-2-yl)-2-butanone Maleate]	2.1 mg/kg	4.4 mg/kg	–	–	–
O=C(O)CCN1CCC2C3c4ccccc4C(c4ccccc43)C2C1 (racemic) [R=CH2 CH2 COOH, R1=H, R2=H, R3=H, R4=H, (±)1,2,3,4,4a,5,10,10a-Octahydro-5,10-o-benzenobenz[g]isoquinoline-2-propionic Acid Hydrochloride]	15 mg/kg	27 mg/kg	–	–	–
c1ccc(C(CN2CCC3C4c5ccccc5C(c5ccccc54)C3C2)c2ccccc2)cc1 (racemic) [R=CH2 CH(C6 H5)2, R1=H, R2=H, R3=H, R4=H, (±)1,2,3,4,4a,5,10,10a-octahydro-2-(2,2-diphenylethyl)-5,10-o-benzenobenz[g]isoquinoline hydrochloride]	12 mg/kg	47 mg/kg	–	–	–
CN1CCC2C3c4ccccc4C(c4ccccc43)C2C1 (racemic) [R=CH3, R1=H, R2=H, R3=H, R4=H, (±)1,2,3,4,4a,5,10,10a-Octrahydro-2-methyl-5,10-o-benzenobenz[g]isoquinoline Hydrochloride]	1 mg/kg	6 mg/kg	–	–	–
CCOC(=O)N1CCC2C3c4ccccc4C(c4ccccc43)C2C1 (racemic) [R=COOC2 H5, R1=H, R2=H, R3=H, R4=H, (±)1,2,3,4,4a,5,10,10a-Octahydro-5,10-o-benzenobenz[g]isoquinoline-2-carboxylic Acid, Ethyl Ester]	2.1 mg/kg	5.4 mg/kg	–	–	–
c1ccc2c(c1)C1c3ccccc3C2C2CNCCC12 (racemic) [R=H, R1=H, R2=H, R3=H, R4=H, (±)1,2,3,4,4a,5,10,10a-Octahydro-5,10-o-benzenobenz[g]isoquinoline Hydrochloride]	0.41 mg/kg	1.5 mg/kg	–	–	–
CN(C)CCC=C1c2ccccc2CCc2ccccc21 [Amitriptyline, reference compound]	1 mg/kg	1.2 mg/kg	–	–	–
CN(C)CCCN1c2ccccc2CCc2ccccc21 [Imipramine]	–	–	may cause blurred vision, dryness of mouth, constipation, urinary retention, orthostatic hypotension, respiration depression, myocardial infarction and congestive heart failure	–	–
(±)1,2,3,4,4a,5,10,10a-octahydro-5-(or: -10)-methyl-5,10-o-benzobenz[g]isoquinoline hydrochloride [R=H, R1=CH3 (H), R2=H(CH3), R3=H, R4=H]	–	–	–	22 mg/kg	38 mg/kg
(±)1,2,3,4,4a,5,10,10a-octahydro-7-(or: -8-)methyl-5,10-o-benzenobenz[g]isoquinoline hydrochloride [R=H, R1=H, R2=H, R3=7 or 8-CH3, R4=H]	–	–	–	.94 mg/kg	4.8 mg/kg
(±)1,2,3,4,4a,-5,10,10a-octahydro-2,5-dimethyl-5,10-o-benzenobenz[g]isoquinoline or (±)1,2,3,4,4a,5,10,10a-octahydro-2,10-dimethyl-5,10-o-benzenobenz[g]isoquinoline [R=CH3, R1=CH3 (H), R2=H(CH3), R3=H, R4=H]	–	–	–	21 mg/kg	27 mg/kg
(±)2-(1-adamantylmethyl)-1,2,3,4,4a,5,10,10a-octahydro-5,10-o-benzenobenz[g]isoquinoline, hydrochloride hemihydrate [R=1-adamantyl, R1=H, R2=H, R3=H, R4=H]	–	–	–	24 mg/kg	41 mg/kg
(±)6,10-dichloro-1,2,3,4,4a,5,10,10a-octahydro-2-methyl-5,10-o-benzenobenz[g]isoquinoline hydrochloride [R=CH3, R1=H, R2=H, R3=6-Cl, R4=10-Cl]	–	–	–	12.2 mg/kg	22 mg/kg
(±)6-(or: -9-)-chloro-1,2,3,4,4a,5,10,10a-octahydro-2-methyl-5,10-o-benzenobenz[g]isoquinoline hydrochloride [R=CH3, R1=H, R2=H, R3=6 or 9-Cl, R4=H]	–	–	–	1.3 mg/kg	1.4 mg/kg
(±)6-(or: -9-)chloro-1,2,3,4,4a,10,10a-octahydro-5,10-o-benzenobenz[g]isoquinoline hydrochloride [R=H, R1=H, R2=H, R3=6 or 9-Cl, R4=H]	–	–	–	2.2 mg/kg	2.5 mg/kg
(±)7-(or: -8-)-chloro-1,2,3,4,4a,5,10,10a-octahydro-5,10-o-benzenobenz[g]isoquinoline hydrochloride [R=H, R1=H, R2=H, R3=7 or 8-Cl, R4=H]	–	–	–	1.4 mg/kg	1.7 mg/kg
(±)7-(or: -8-)-fluoro-1,2,3,4,4a,5,10,10a-octahydro-5,10-o-benzenobenz[g]isoquinoline hydrochloride [R=H, R1=H, R2=H, R3=7 or 8-F, R4=H]	–	–	–	.58 mg/kg	1.7 mg/kg
(±)7-(or: -8-)chloro-1,2,3,4,4a,5,10,10a-octahydro-2-methyl-5,10-o-benzenobenz[g]isoquinoline hydrochloride hemihydrate [R=CH3, R1=H, R2=H, R3=7 or 8-Cl, R4=H]	–	–	–	3.4 mg/kg	4.5 mg/kg
(±)7-(or: -8-)fluoro-1,2,3,4,4a,5,10,10a-octahydro-2-methyl-5,10-o-benzenobenz[g]isoquinoline hydrochloride [R=CH3, R1=H, R2=H, R3=7 or 8-F, R4=H]	–	–	–	2.0 mg/kg	2.7 mg/kg
